Blank lines part the entries; values can stand above or below the compound they belong to.
Columns and labels:
[1] = molecular target: T1, DtolTA (PLP-dependent transaminase of fold type IV) (Desulfobacula toluolica, UniProt K0NPP0); experiment: half-reaction (deamination) kinetics, absorbance at […] nm; kmax/KD^app; assay type: biochemical; parameters: gene dat; (His)6-tagged DtolTA
T1 sequence (K0NPP0 1-286): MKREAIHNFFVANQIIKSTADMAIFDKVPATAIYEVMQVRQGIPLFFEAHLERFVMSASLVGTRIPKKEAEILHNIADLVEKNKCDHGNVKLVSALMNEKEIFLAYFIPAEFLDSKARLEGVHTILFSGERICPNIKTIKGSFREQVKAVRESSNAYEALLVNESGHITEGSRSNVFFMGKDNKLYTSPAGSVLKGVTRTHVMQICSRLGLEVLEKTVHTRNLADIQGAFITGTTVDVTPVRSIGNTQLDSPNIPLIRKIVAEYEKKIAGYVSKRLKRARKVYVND

[2] = molecular target: T2, DtolTA (PLP-dependent transaminase of fold type IV) (Desulfobacula toluolica, UniProt K0NPP0, R144I); experiment: as above; assay type: biochemical
T2 construct: gene dat; (His)6-tagged DtolTA variant

[3] = molecular target: T3, DtolTA (PLP-dependent transaminase of fold type IV) (Desulfobacula toluolica, UniProt K0NPP0, K91A); experiment: half-reaction kinetics of variant apoenzyme in the presence of PLP; kmax/KD^app at pH […]; assay type: biochemical
T3 construct: gene dat; (His)6-tagged DtolTA variant

[4] = molecular target: T1, DtolTA (PLP-dependent transaminase of fold type IV); experiment: half-reaction (deamination) kinetics, absorbance at […] nm; kmax/KD^app at pH […]; assay type: biochemical; parameters: gene dat; (His)6-tagged DtolTA
[5] = molecular target: T2, DtolTA (PLP-dependent transaminase of fold type IV); experiment: tyrosine fluorescence quenching titration of apoenzyme; assay type: binding
Description: tyrosine fluorescence quenching titration of apoenzyme on DtolTA (PLP-dependent transaminase of fold type IV) | apparent dissociation constant Kd(PLP) for the R144I holoenzyme were similar to those of WT

[6] = molecular target: T1, DtolTA (PLP-dependent transaminase of fold type IV); experiment: crystal structure (9J0V […] Å; also 9J0U […] Å); tyrosine fluorescence quenching titration of apoenzyme; assay type: binding; parameters: gene dat; full length, 286 a.a; (His)6-tagged for Kd, tag removed for crystals
[7] = molecular target: TA from Haliscomenobacter hydrossis (Haliscomenobacter hydrossis); experiment: SEC; gel filtration of the purified enzyme; column and buffer not given

- half-reaction (deamination) kinetics, absorbance at 411 nm; kmax/KD^app [1]: 0.015 ± 0.005 M⁻¹ s⁻¹
Compound: C[C@@H](N)c1ccccc1 [(R)-1-phenylethylamine]

Compound: C[C@@H](N)C(=O)O [D-alanine]
- half-reaction (deamination) kinetics, absorbance at 411 nm; kmax/KD^app [2]: 29 ± 1 M⁻¹ s⁻¹
- half-reaction kinetics of variant apoenzyme in the presence of PLP; kmax/KD^app [3]: 2.4 ± 0.7 M⁻¹ s⁻¹
- half-reaction (deamination) kinetics, absorbance at 411 nm; kmax/KD^app at pH 8. [4]: 37 ± 1 M^−1s^−1

Compound: N[C@H](CCC(=O)O)C(=O)O [D-glutamate]
- half-reaction (deamination) kinetics, absorbance at 411 nm; kmax/KD^app [1]: 0.020 ± 0.001 M⁻¹ s⁻¹

Compound: Cc1ncc(COP(=O)(O)O)c(C=O)c1O [pyridoxal-5′-phosphate]
- Kd [5]: 43 ± 2 µM
- Kd [6]: 30 ± 4 µM

- stoichiometry N [7]: 2
Compound: TA from Haliscomenobacter hydrossis (enzyme)
